Assay [1] has as its target T1, hSERT (Homo sapiens, UniProt P31645).
T1 construct: expressed in transfected cells
Kind of assay: SERT assay (Compounds of Formula II), transporter uptake assay kit. The class given is cell-based. Here is the method: SERT assays were performed using a standard transporter uptake assay kit, (Molecular devices, (R8174)). In short, test compounds (10 nM-30 μM), reference compound or vehicle control were added to cells stably expressing hSERT (20,000/well) in assay buffer containing HBSS (20 mM) and BSA (0.1% (w/v)) for 30 mins at 30° C. Assay plates were incubated in the presence of dye for a further 60 mins at 37° C. and intracellular fluorescence intensity was determined.

Assay [2] concerns the target T2, PDE-4A1A (Homo sapiens, UniProt P27815).
T2 construct: purchased Sigma SRP0262
The assay can be described thus: PDE-41A assay (Compounds of Formula II), AMP-Glo. The class given is biochemical. Here is the method:
PDE-41A assays were performed using the AMP-Glo™ Assay Kit, (Promega-V5012) human recombinant […] (Sigma, SRP0262) according to recommended protocols. […]

Assay [3] has as its target human recombinant PDE-4B1 (Homo sapiens, UniProt Q07343). Kind of assay: PDE4-B1 assay (Compounds of Formula I), SPA. The class given is biochemical. Particulars: for inhibition at 30 µM: relative to Ro 20-1724; for IC50: 4-parameter logistical fit, two technical replicates. Here is the method: (§1) 20 mins after addition of human recombinant PDE-4B1 (1.2 IEU) or PDE-4D2 (1.5 IEU), SPA beads were added and incubated at 22° C. for a further 30 mins. [^3H]5′AMP was quantified by a standard scintillation counting method.

Assay [4] has as its target human recombinant PDE-4D2 (Homo sapiens, UniProt Q08499). The assay can be described thus: PDE4-D2 assay (Compounds of Formula I), SPA. To be noted: for inhibition at 30 µM: relative to Ro 20-1724; for IC50: 4-parameter logistical fit, two technical replicates. The class given is biochemical. Here is the method:
as §1

The target of assay [5] is human serotonin transporter (Homo sapiens, UniProt P31645). To be noted: for inhibition: 10 µM.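 On all read-outs here: Read-out: uptake of tritium-labelled serotonin, measured by scintillation counting.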
Description: Following incubation, [^3H] serotonin uptake was quantified by a standard scintillation counting method.

SMILES strings stand for the structures.

Sequence of human recombinant PDE-4D2 (Q08499 303-809): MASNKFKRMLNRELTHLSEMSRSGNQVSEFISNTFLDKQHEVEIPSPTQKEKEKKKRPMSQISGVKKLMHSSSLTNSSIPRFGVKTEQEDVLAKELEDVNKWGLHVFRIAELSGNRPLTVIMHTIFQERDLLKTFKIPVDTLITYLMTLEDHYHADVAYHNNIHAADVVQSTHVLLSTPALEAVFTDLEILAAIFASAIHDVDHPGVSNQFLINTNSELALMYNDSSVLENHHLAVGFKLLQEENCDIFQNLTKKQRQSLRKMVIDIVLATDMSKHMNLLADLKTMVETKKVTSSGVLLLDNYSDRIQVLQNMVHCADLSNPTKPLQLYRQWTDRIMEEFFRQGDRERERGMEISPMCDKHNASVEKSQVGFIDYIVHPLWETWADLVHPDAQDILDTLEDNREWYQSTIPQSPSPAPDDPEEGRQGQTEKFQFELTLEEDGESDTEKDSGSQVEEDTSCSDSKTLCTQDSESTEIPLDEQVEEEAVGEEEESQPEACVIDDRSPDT
Sequence of human serotonin transporter (P31645 whole entry): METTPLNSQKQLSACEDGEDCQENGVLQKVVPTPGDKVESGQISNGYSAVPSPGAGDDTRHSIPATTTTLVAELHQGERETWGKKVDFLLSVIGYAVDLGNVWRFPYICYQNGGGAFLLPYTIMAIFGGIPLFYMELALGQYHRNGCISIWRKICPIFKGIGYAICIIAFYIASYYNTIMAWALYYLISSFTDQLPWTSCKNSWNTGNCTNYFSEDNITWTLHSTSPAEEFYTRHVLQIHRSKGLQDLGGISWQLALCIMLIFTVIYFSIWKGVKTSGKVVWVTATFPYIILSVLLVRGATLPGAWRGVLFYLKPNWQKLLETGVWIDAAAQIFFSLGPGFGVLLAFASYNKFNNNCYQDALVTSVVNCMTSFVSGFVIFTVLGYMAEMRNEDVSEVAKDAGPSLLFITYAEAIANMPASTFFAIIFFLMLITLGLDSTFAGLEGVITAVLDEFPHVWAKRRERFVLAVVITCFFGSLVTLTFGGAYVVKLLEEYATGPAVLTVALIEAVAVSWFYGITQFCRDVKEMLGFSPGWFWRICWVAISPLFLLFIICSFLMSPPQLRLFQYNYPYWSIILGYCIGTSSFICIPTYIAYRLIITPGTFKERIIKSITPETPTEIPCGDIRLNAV
T1 sequence (P31645 whole entry): as above
T2 sequence (P27815 1-647 isoform P27815-4): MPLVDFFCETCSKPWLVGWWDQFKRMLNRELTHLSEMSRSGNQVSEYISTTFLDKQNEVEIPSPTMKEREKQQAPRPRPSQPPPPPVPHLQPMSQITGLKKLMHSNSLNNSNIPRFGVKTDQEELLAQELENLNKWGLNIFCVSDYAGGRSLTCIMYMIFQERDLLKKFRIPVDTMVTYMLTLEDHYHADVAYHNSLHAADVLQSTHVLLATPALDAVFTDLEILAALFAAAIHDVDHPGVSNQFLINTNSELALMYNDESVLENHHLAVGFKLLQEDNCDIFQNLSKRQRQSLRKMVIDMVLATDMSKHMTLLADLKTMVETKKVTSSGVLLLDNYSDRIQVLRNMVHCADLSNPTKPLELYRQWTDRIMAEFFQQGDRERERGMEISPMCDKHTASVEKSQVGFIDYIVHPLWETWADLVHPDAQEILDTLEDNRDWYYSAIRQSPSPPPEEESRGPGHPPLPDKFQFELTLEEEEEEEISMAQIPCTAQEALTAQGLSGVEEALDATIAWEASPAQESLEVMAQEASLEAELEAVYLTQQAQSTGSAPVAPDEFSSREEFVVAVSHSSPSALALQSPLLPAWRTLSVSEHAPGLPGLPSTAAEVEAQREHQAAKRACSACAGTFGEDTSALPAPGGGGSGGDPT
Sequence of human recombinant PDE-4B1 (Q07343 whole entry): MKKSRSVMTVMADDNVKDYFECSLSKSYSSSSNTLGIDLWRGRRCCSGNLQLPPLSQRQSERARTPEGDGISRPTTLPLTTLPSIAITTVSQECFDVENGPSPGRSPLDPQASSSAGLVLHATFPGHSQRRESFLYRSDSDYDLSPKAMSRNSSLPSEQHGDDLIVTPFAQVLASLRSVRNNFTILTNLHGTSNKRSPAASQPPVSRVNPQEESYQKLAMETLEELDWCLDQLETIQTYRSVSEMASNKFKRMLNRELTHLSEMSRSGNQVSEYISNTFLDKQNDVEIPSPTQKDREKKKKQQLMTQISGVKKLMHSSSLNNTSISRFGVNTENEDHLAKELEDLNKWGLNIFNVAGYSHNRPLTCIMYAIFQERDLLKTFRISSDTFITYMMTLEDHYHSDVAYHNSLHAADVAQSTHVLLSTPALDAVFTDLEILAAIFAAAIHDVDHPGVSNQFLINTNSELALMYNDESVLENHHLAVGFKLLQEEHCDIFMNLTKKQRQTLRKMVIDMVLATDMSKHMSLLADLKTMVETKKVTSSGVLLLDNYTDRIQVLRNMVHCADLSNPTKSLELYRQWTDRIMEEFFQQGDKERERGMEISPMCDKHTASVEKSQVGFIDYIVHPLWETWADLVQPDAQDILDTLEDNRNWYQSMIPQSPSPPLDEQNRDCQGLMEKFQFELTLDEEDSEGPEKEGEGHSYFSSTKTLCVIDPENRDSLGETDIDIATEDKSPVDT

Usually inhibition stands for the drop in the measured response relative to a control, in per cent. On to `COc1ccc([C@@]23CC[C@@H](OC(=O)CCCC(=O)O)C[C@@H]2N(C)CC3)cc1OC` [Compound 47], for which, in assay [1], the inhibition at 1 µM came to 90% and the inhibition at 3 µM stood at 94%. In assay [2], the inhibition at 30 µM was 40% and the inhibition at 100 µM was 88%.
Taken in the same sequence, the figures for `COc1ccc([C@@]23CC[C@@H](OC(=O)CCC(=O)O)C[C@@H]2N(C)CC3)cc1OC` [Compound 46] were 81%, 94%, 53% and 79%.
With `CC(C)Oc1ccc([C@@]23CCC(=O)C[C@@H]2N(C)CC3)cc1O` [Compound 18], the inhibition at 30 µM was -4% in assay [3] and -3% in assay [4]. The inhibition in assay [5] stood at 86%.
In the same order, the values of `CC(C)Oc1ccc([C@@]23CCC(=O)C[C@@H]2N(C)CC3)cc1OC1CCCCC1` [Compound 26] are 26%, 20% and 81%.
For the molecule `COc1ccc([C@@]23C=C[C@@H](OC(=O)C(C)N)C[C@@H]2N(C)CC3)cc1OC` (some centres unmarked) [Compound 57], in assay [1], the inhibition at 1 µM worked out at 86% and the inhibition at 3 µM worked out at 97%. For the same molecule, in assay [2], the inhibition at 30 µM was found to be 101% and the inhibition at 100 µM was 102%.
What is called IC50 is the point on the concentration scale where inhibition reaches its midpoint. With `C=CCOc1cc([C@@]23CCC(=O)C[C@@H]2N(C)CC3)ccc1OCC1CC1` [Compound 38], the half-inhibitory concentration (IC50) in assay [3] is greater than 30 µM; in assay [4], greater than 30 µM; in assay [5], 0.4 µM.
`COc1ccc([C@@]23C=C[C@@H](OC(=O)CCC(=O)O)C[C@@H]2N(C)CC3)cc1OC` [Compound 54]: in assay [1], the inhibition at 1 µM was 78% and the inhibition at 3 µM turned out to be 98%. In assay [2], the inhibition at 30 µM was 98% and the inhibition at 100 µM came to 101%.
Consider `COc1ccc([C@@]23CC[C@@H](OC(=O)C(C)C)C[C@@H]2N(C)CC3)cc1OC` [Compound 51], for which, in assay [1], the inhibition at 1 µM was found to be 99% and the inhibition at 3 µM stood at 98%. Besides, in assay [2], the inhibition at 30 µM turned out to be 95% and the inhibition at 100 µM is 99%.
As for `CCOc1cc([C@@]23CCC(=O)C[C@@H]2N(C)CC3)ccc1OCC1CC1` [Compound 35], the concentration for half-maximal inhibition (IC50) in assay [3] was greater than 30 µM; in assay [4], greater than 30 µM; in assay [5] it was 0.2 µM.
With `CSc1cc([C@@]23CCC(=O)C[C@@H]2N(C)CC3)ccc1OC(C)C` [Compound 25], the half-inhibitory concentration (IC50) in assay [3] and in assay [4] was greater than 30 µM throughout.
In the case of `CCC(=O)O[C@@H]1C=C[C@@]2(c3ccc(OC)c(OC)c3)CCN(C)[C@H]2C1` [Compound 58], in assay [1], the inhibition at 1 µM stood at 98% and the inhibition at 3 µM came to 98%. Further, in assay [2], the inhibition at 30 µM amounted to 103% and the inhibition at 100 µM amounted to 100%.
Turning to `CN1CC[C@]2(c3ccc(OCC4CC4)c(OCC4CC4)c3)CCC(=O)C[C@H]12` [Compound 36], the IC50 in assay [3] was greater than 30 µM; in assay [4], greater than 30 µM; in assay [5], 0.4 µM.
`CCC(=O)O[C@@H]1CC[C@@]2(c3ccc(OC)c(OC)c3)CCN(C)[C@H]2C1` [Compound 50]: in assay [1], the inhibition at 1 µM came out at 98% and the inhibition at 3 µM turned out to be 98%. Also, in assay [2], the inhibition at 30 µM was 92% and the inhibition at 100 µM is 101%.
As for `COc1ccc([C@]23CCC(=O)C[C@H]2N(C)CC3)cc1OC` [Compound 45], the half-maximal inhibitory concentration (IC50) in assay [4] was less than 3 µM.
`COc1ccc([C@@]23CC[C@@H](OC(=O)c4ccc[nH]4)C[C@@H]2N(C)CC3)cc1OC` [Compound 53]: in assay [1], the inhibition at 1 µM worked out at 99% and the inhibition at 3 µM is 98%. Further, in assay [2], the inhibition at 30 µM stood at 94% and the inhibition at 100 µM amounted to 97%.
In the same order, the values of `COc1ccc([C@@]23C=C[C@@H](OC(=O)CN)C[C@@H]2N(C)CC3)cc1OC` [Compound 56] are 86%, 99%, 74% and 102%.
As for `CCCCOc1cc([C@@]23CCC(=O)C[C@@H]2N(C)CC3)ccc1OCC1CC1` [Compound 37], the IC50 in assay [3] was greater than 30 µM; in assay [4], greater than 30 µM; in assay [5], 0.8 µM.
Consider `COc1ccc([C@@]23C=C[C@@H](OC(=O)c4ccc[nH]4)C[C@@H]2N(C)CC3)cc1OC` [Compound 61], for which, in assay [1], the inhibition at 1 µM came out at 101% and the inhibition at 3 µM came out at 106%. Moreover, in assay [2], the inhibition at 30 µM stood at 94% and the inhibition at 100 µM was found to be 90%.
In the case of `COc1cc([C@@]23CCC(=O)C[C@@H]2N(C)CC3)ccc1OC(C)C` [Compound 19], the inhibition at 30 µM in assay [3] came to 1%; in assay [4] it was 3%. In addition, the inhibition in assay [5] was determined as 99%.
In the same order, the values of `CCCCOc1cc([C@@]23CCC(=O)C[C@@H]2N(C)CC3)ccc1OC(C)C` [Compound 30] are 24%, 31% and 95%.
For `CN1CC[C@]2(c3ccc(OCC4CC4)c(OC4CCCC4)c3)CCC(=O)C[C@H]12` [Compound 39], the IC50 was greater than 30 µM in assay [3], greater than 30 µM in assay [4] and 4.5 µM in assay [5].
As to `CCOc1ccc([C@@]23CCC(=O)C[C@@H]2N(C)CC3)cc1SC` [Compound 17], the inhibition at 30 µM in assay [3] was 61%; in assay [4], 74%. The inhibition in assay [5] was determined as 99%.
In the case of `COc1ccc([C@@]23CC[C@@H](OC(=O)c4ccccc4)C[C@@H]2N(C)CC3)cc1OC` [Compound 52], in assay [1], the inhibition at 1 µM was 91% and the inhibition at 3 µM was found to be 91%. Moreover, in assay [2], the inhibition at 30 µM stood at 97% and the inhibition at 100 µM came to 99%.
With `COc1ccc([C@@]23C=C[C@@H](OC(=O)C(C)C)C[C@@H]2N(C)CC3)cc1OC` [Compound 59], in assay [1], the inhibition at 1 µM worked out at 99% and the inhibition at 3 µM was 97%. Besides, in assay [2], the inhibition at 30 µM came out at 100% and the inhibition at 100 µM came out at 100%.
As for `CCOc1ccc([C@@]23CCC(=O)C[C@@H]2N(C)CC3)cc1OC1CCCCC1` [Compound 23], the inhibition at 30 µM is 88% in assay [3] and 93% in assay [4]. Also, the inhibition in assay [5] stood at 77%.
Taken in the same sequence, the figures for `CCOc1cc([C@@]23CCC(=O)C[C@@H]2N(C)CC3)ccc1OC(C)C` [Compound 29] were 40%, 32% and 99%.
Regarding `COc1ccc([C@@]23CCC(=O)C[C@@H]2N(C)CC3)cc1O` [Compound 10], the 50% inhibitory concentration (IC50) in assay [3] is greater than 30 µM; in assay [4] it was greater than 30 µM; in assay [5], 0.3 µM.
`COc1ccc([C@@]23CCC(=O)C[C@@H]2N(C)CC3)cc1OCC(F)F` [Compound 7] registered an IC50 in assay [5] of 0.02 µM.
Turning to `CC(C)Oc1ccc([C@@]23CCC(=O)C[C@@H]2N(C)CC3)cc1OCC1CC1` [Compound 22], the inhibition at 30 µM amounted to 38% in assay [3] and 37% in assay [4]. For the same molecule, the inhibition in assay [5] was found to be 91%.
Taken in the same sequence, the figures for `CCOc1ccc([C@@]23CCC(=O)C[C@@H]2N(C)CC3)cc1O` [Compound 16] were -1%, 3% and 98%.
On to `CCSc1cc([C@@]23CCC(=O)C[C@@H]2N(C)CC3)ccc1OC` [Compound 3], for which the IC50 in assay [3] was 5.2 µM; in assay [4] it was 1.3 µM; in assay [5], 0.005 µM.
In the same order, the values of `CN1CC[C@]2(c3ccc(OCC4CC4)c(O)c3)CCC(=O)C[C@H]12` [Compound 33] are greater than 30 µM, greater than 30 µM and 2.1 µM.
On to `COc1ccc([C@@]23C=C[C@@H](OC(=O)CCCC(=O)O)C[C@@H]2N(C)CC3)cc1OC` [Compound 55], for which, in assay [1], the inhibition at 1 µM was determined as 67% and the inhibition at 3 µM turned out to be 97%. Moreover, in assay [2], the inhibition at 30 µM came out at 100% and the inhibition at 100 µM was determined as 95%.
Regarding `COc1ccc([C@@]23CCC(=O)C[C@@H]2N(C)CC3)cc1OC1CCCCC1` [Compound 14], the inhibition at 30 µM came to 94% in assay [3] and 97% in assay [4]. Also, the inhibition in assay [5] turned out to be 59%.
As to `COc1ccc([C@@]23CC[C@@H](OC(=O)C(C)N)C[C@@H]2N(C)CC3)cc1OC` (some centres unmarked) [Compound 49], in assay [1], the inhibition at 1 µM was 95% and the inhibition at 3 µM amounted to 97%. In assay [2], the inhibition at 30 µM came to 87% and the inhibition at 100 µM amounted to 86%.
Taken in the same sequence, the figures for `COc1ccc([C@@]23C=C[C@@H](OC(=O)c4ccccc4)C[C@@H]2N(C)CC3)cc1OC` [Compound 60] were 92%, 95%, 98% and 100%.
Take `COc1cc([C@@]23CCC(=O)C[C@@H]2N(C)CC3)ccc1OCC1CC1` [Compound 34]: the figures for the concentration for half-maximal inhibition (IC50) in assay [3], in assay [4] and in assay [5] were greater than 30 µM, greater than 30 µM and 0.9 µM, respectively.
With `COc1ccc([C@@]23CC[C@@H](OC(=O)CN)C[C@@H]2N(C)CC3)cc1OC` [Compound 48], in assay [1], the inhibition at 1 µM is 93% and the inhibition at 3 µM came to 101%. Besides, in assay [2], the inhibition at 30 µM is -8% and the inhibition at 100 µM stood at 48%.

The values are drawn from patent US20250091992A1, “NOVEL COMPOUNDS AND USES THEREOF” (KANNA HEALTH LIMITED, priority 2021, published 2025).
